{"source": "a melting point compilation (Tetko et al.; mined from patent text by program, amines drawn as free bases though some values may be those of a salt)"}
{"units": {"melting point": "°C"}}
{"compound": "C=C(c1ccc(-c2ncnn2COCC)cc1)C(O)(Cn1cncn1)c1ccc(F)cc1F", "note": "(centres undefined)", "melting point": "160 to 162"}
{"compound": "O=C1Nc2ccc(Br)cc2C1c1ncnc2c1cnn2C1CCCCC1", "note": "(centres undefined)", "melting point": "305 to 308"}
{"compound": "Cc1ccc(Cc2cnc(NCCCN(C)c3ncccc3C)[nH]c2=O)cn1", "melting point": "83 to 85"}
{"compound": "CC(=O)NCC1CC1c1cccc2nc(C)cn12", "note": "(centres undefined)", "melting point": "170 to 171"}
{"compound": "COc1ncccc1-c1cccc(OC2SCC(OC(C)=O)C(OC(C)=O)C2OC(C)=O)c1", "note": "(centres undefined)", "melting point": 179}
{"compound": "CC(NC(=O)Cc1cc(F)cc(F)c1)C(=O)NC1C(=O)NC(Cc2ccccc2)c2ccccc21", "note": "(centres undefined)", "melting point": "106 to 107"}
{"compound": "O=C1CCC([N+](=O)[O-])C(c2cccc(Cl)c2)N1", "note": "(centres undefined)", "melting point": "131 to 133"}
{"compound": "CC1=CC(=O)C(C(C)C)=C(CCNC(=O)C(F)(F)F)C1=O", "melting point": "94 to 95"}
{"compound": "CC=C(NC(=O)C1CC1(CC)CC)C(=O)O", "note": "(centres undefined)", "melting point": "129 to 130"}
{"compound": "O=C1OC(c2cccc(C(F)(F)F)c2)=NC1=Cc1cccs1", "melting point": "200 to 202"}
{"compound": "COc1ccc(-n2nc(C(F)(F)F)cc2-c2ccc(S(C)(=O)=O)cc2)cc1Br", "melting point": "164 to 166"}
{"compound": "CC1(C)CC([N+]([O-])=Cc2ccccc2)CC(C)(C)N1", "melting point": 113}
{"compound": "Cc1c(Br)sc2cc(CO)ccc12", "melting point": 91}
{"compound": "CNc1cccc([N+](=O)[O-])c1C#N", "melting point": "203 to 206"}
{"compound": "Cc1nc(C(=O)NC(C)(CO[N+](=O)[O-])CO[N+](=O)[O-])cs1", "melting point": "78 to 81"}
{"compound": "CCC1=C(Cl)C(=O)c2ccccc2C1=O", "melting point": "109 to 110"}
{"compound": "CC1(C)Oc2ccc([N+](=O)[O-])cc2C(Br)C1Br", "note": "(centres undefined)", "melting point": "130 to 134"}
{"compound": "CC1(C)C(=O)N(c2ccc(C#N)c(C(F)(F)F)c2)C(=O)N1CC=CCN1C(=O)N(c2ccc(C#N)c(C(F)(F)F)c2)C(=O)C1(C)C", "melting point": "188 to 190"}
{"compound": "CN1C(=O)C(NC(=O)Nc2ccc(F)cc2)C(=O)N(C23CC4CC(CC(C4)C2)C3)c2ccccc21", "note": "(centres undefined)", "melting point": "239 to 241"}
{"compound": "CC(=O)OCC1OC(n2c(Cl)c(C=O)c3cc(Cl)c(Cl)cc32)C(O)C1O", "note": "(centres undefined)", "melting point": "154 to 155"}
{"compound": "CCCCCCCCCCCCCCOc1ccc([N+](=O)[O-])cc1", "melting point": "57 to 60"}
{"compound": "COc1cc(/C=C/S(=O)(=O)CS(=O)(=O)/C=C/c2ccc(O)c(OC)c2)ccc1O", "melting point": "125 to 127"}
{"compound": "CS(=O)(=O)OCCCCCc1ccc(OCc2coc(/C=C/c3ccccc3)n2)cc1", "melting point": "105 to 106"}
{"compound": "Cc1cc(C)c(N2c3ccccc3Sc3cc(C=O)ccc32)c(C)c1", "melting point": "136 to 140"}
{"compound": "COc1cc2ncnc(N3CCC(CCBr)CC3)c2cc1OC", "melting point": 191}
{"compound": "FC(F)c1nc2ccccc2n1-c1nc(Nc2ccccn2)nc(N2CCOCC2)n1", "melting point": "230 to 232"}
{"compound": "COc1ccc(C(=O)N2CCCC(=O)c3ccc(Cl)cc3CCC2=O)cc1", "melting point": 143}
{"compound": "O=C(O)CCc1cc2nc(Cl)ccc2n1S(=O)(=O)c1ccc2ncsc2c1", "melting point": 248}
{"compound": "CCOC(=O)CNc1ccc2c(c1)CCC2", "melting point": 49}
{"compound": "O=C(CCN1CCCCC1)Nc1cccc([N+](=O)[O-])c1", "melting point": "95 to 96"}
{"compound": "CSC(Cc1ccc(OCCN(C)c2nc3ccccc3o2)cc1)C(=O)O", "note": "(centres undefined)", "melting point": "140 to 141"}
{"compound": "CCCCNC(=O)[C@@H](C[C@H](O)[C@@H](N)CC1CCCC1)C(C)C", "melting point": "93 to 94"}
{"compound": "C=CCOc1ccc(C)c2c1C(C)(C)C(=O)N2", "melting point": "153 to 155"}
{"compound": "CC(c1ccccc1)N1CC(CF)(C(=O)N(Cc2ccccc2)Cc2ccccc2)CC1=O", "note": "(centres undefined)", "melting point": "113 to 115"}
{"compound": "CCCCn1cc(/C=C(\\Cc2cc3c(cc2OC)OCO3)C(=O)O)c(-c2ccc(OC)cc2OCc2ccccc2C(=O)O)n1", "melting point": "226 to 227"}
{"compound": "O=C(CCN1CCCCC1)Nc1ccc2[nH]c3ccc(NC(=O)CCN4CCCCC4)cc3c(=O)c2c1", "melting point": "> 320"}
{"compound": "CSc1nc(SCc2ccccc2)n[nH]1", "melting point": "80 to 82"}
{"compound": "CC(C)c1nn(-c2ccccn2)c(-c2ccc(F)cc2)c1/C=C/C=O", "melting point": "105 to 107"}
{"compound": "CCOC(=O)CN(C(=O)C(F)(F)F)C(NC(C)C)P(=O)(O)OSCC", "note": "(centres undefined)", "melting point": "85 to 87"}
{"compound": "CSC[C@H](NC(=O)C(C)(C)SC)C(=O)O", "melting point": "120 to 121"}
{"compound": "CCCCC(O)CN1N=CCCC1c1ccc(F)cc1", "note": "(centres undefined)", "melting point": "75 to 77"}
{"compound": "C=CCNc1nc(NC(C)(C)C)c2scc(C)c2n1", "melting point": "89 to 90"}
{"compound": "COc1cc2c(cc1OC)CN(CCCOc1ccc(NC(=O)c3nc4cc(C)c(C)cc4nc3OC)cc1)CC2", "melting point": 158}
{"compound": "Cc1cccc2c1CCn1cc(-c3ccccc3)nc1C2OC1CCN(C)CC1", "note": "(centres undefined)", "melting point": 71}
{"compound": "O=C(c1ccc([N+](=O)[O-])cc1)N1CC2CC2(c2ccc(Cl)cc2)C1", "note": "(centres undefined)", "melting point": "177 to 180"}
{"compound": "CCOC(=O)c1c2n(c3c(F)c(F)c(F)cc3c1=O)C(C)S2", "note": "(centres undefined)", "melting point": "206 to 210"}
{"compound": "CN(C(=O)C(F)(F)F)C1Cc2ccc(C(=O)CCl)cc2C1", "note": "(centres undefined)", "melting point": "130 to 131"}
{"compound": "COc1cc(NC(=O)c2ccccc2Cl)ccc1C(=O)N1CCCC(OCCNC(N)=O)c2cc(Cl)ccc21", "note": "(centres undefined)", "melting point": "206 to 207"}
{"compound": "CC(C)(Oc1ccc(Oc2ccc(OC(C)(C)C(=O)O)cc2)cc1)C(=O)O", "melting point": 125}
{"compound": "Cc1cc(-c2nc3cc(OCCOC(C)C)cc(OCCOC(C)C)c3c(=O)[nH]2)cc(C)n1", "melting point": "124 to 125"}
{"compound": "CC(=O)C1=CCC2C3CCC4CC(OS(=O)(=O)c5ccc(C)cc5)CCC4(C)C3CCC12C", "note": "(centres undefined)", "melting point": "146 to 148"}
{"compound": "CSCc1nnc(-c2ccc3occ(-c4cccc(OC(F)(F)F)c4)c3c2)o1", "melting point": "84 to 85"}
{"compound": "CCCCSc1cc2nc3ccccc3sc-2cc1=O", "melting point": 133}
{"compound": "O=C(O)CCCCCc1cccc2cncn12", "melting point": "144 to 147"}
{"compound": "N#Cc1nccn1Cc1ccccc1", "melting point": "51 to 52"}
{"compound": "CC(C)c1ccc2c(c1)c(-c1ccccc1Cl)c(NC(=O)Nc1cccc(C(F)(F)F)c1)c(=O)n2C", "melting point": "209 to 210"}
{"compound": "Cc1ccc(COc2ccn(Cc3ccccc3)c(=O)c2Br)cc1", "melting point": "149 to 150"}
{"compound": "COc1ccc(C(=O)Nc2cccnc2)cc1NC(=S)Nc1ccc(Cl)c(Cl)c1", "melting point": "179 to 180"}
{"compound": "CN(C)Cc1ccc(CSCCNC(=O)C=CC(=O)NCCCOc2cccc(CN3CCCC3)c2)o1", "melting point": "126 to 128"}
{"compound": "COc1c(F)cc2[nH]c(C)c(CC(=O)OCC[Si](C)(C)C)c2c1F", "melting point": "86.9 to 88.7"}
{"compound": "CCOc1ccc(C=CC(=O)c2c(OC)cc(OC)cc2OC(=O)CC)cc1", "melting point": 105}
{"compound": "CCCCCCCC1=CC(=O)N(c2ccccc2)C1(O)CBr", "note": "(centres undefined)", "melting point": "152 to 154"}
{"compound": "CC(C)(C)OC(=O)CN(CBr)C(=O)c1ccccc1", "melting point": "98 to 102"}
{"compound": "CCOC(=O)COc1cc(F)ccc1C(=O)NCc1cccc([N+](=O)[O-])c1", "melting point": "78 to 80"}
{"compound": "COCCC(=O)N[C@H]1CC[C@H](CCN2CCN(c3nccc4c3OCC4)CC2)CC1", "melting point": 180}
{"compound": "CCOC(=O)c1ncn2c1CN(C)C(=O)c1sccc1-2", "melting point": "160 to 162"}
{"compound": "COc1ccc(C2=NN(C(c3ccccc3)c3ccccc3)C(=O)[C@H]3CCCC[C@@H]23)cc1OC", "note": "(relative stereo)", "melting point": "133 to 135"}
{"compound": "CSc1ccc2c(c1)N=CC(SC)C2=O", "note": "(centres undefined)", "melting point": "90 to 92"}
{"compound": "CCCCC(Cc1ccc(OCCNC(=O)c2ccc(N3CCCCC3)cc2)cc1)C(=O)O", "note": "(centres undefined)", "melting point": "112 to 114"}
{"compound": "c1cncc(-c2cc3ccccc3[nH]2)c1", "melting point": "176 to 177"}
{"compound": "CC(c1c[nH]cn1)C(N)CO", "note": "(centres undefined)", "melting point": 168}
{"compound": "CC1=C(C(=O)N[C@H](C)c2ccccc2)[C@H](c2ccc(F)cc2Cl)N=C(c2nccs2)N1", "melting point": "224 to 226"}
{"compound": "O=c1[nH]c(=O)n(C2OC(CO)C(O)C2O)cc1C(Cl)=CI", "note": "(centres undefined)", "melting point": "109 to 111"}
{"compound": "Cn1ncnc1COc1nn2c(-c3c(F)cccc3F)nncc2c1-c1ccccc1", "melting point": 179}
{"compound": "COc1c(Cl)ccc(-c2cc(N)c(Cl)c(C(=O)NOCCC#N)n2)c1F", "melting point": "191 to 194"}
{"compound": "CCC(=O)Oc1cc(-c2nc3cc(C(=O)O)ccc3oc2=O)cc([N+](=O)[O-])c1OC(=O)CC", "melting point": "192 to 194"}
{"compound": "CN/C(=C1/Sc2ccccc2C1=O)c1ccccc1", "melting point": "154 to 155"}
{"compound": "Cc1oc2c(OC(C)C(N)=NO)cccc2c1C", "note": "(centres undefined)", "melting point": "147 to 148"}
{"compound": "CC(O)c1cc2c(Cl)cc(F)c(-n3c(=O)cc(C(F)(F)F)n(C)c3=O)c2o1", "note": "(centres undefined)", "melting point": "154 to 157"}
{"compound": "O=C(O)c1ccccc1Oc1ccc(C(F)(F)F)cc1NS(=O)(=O)c1ccc(Br)cc1", "melting point": "167 to 168"}
{"compound": "Nc1ccc(S(=O)c2ccc(Sc3ccc(Cl)c([N+](=O)[O-])c3)cc2)cc1[N+](=O)[O-]", "note": "(centres undefined)", "melting point": "170 to 172"}
{"compound": "CC=CC(O)c1c(C(C)C)nc(C(C)C)c(CCCCC)c1-c1ccc(F)cc1", "note": "(centres undefined)", "melting point": "70 to 72"}
{"compound": "Cc1ccccc1C(NCC(=O)Nc1c(C(C)C)cccc1C(C)C)c1ccccc1", "note": "(centres undefined)", "melting point": "163 to 164"}
{"compound": "COC(=O)C(C)(C)Oc1ccc(C(C)=O)cc1", "melting point": "62 to 63"}
{"compound": "CC(C)(SCc1cc2cc(C(F)(F)F)ccc2n1S(=O)(=O)c1ccccc1)C(=O)O", "melting point": 90}
{"compound": "CCCCc1nc(CO)c(SCC)n1Cc1ccc(-c2ccccc2C(=O)OC)cc1", "melting point": 110}
{"compound": "COC(=O)c1ccc(-c2nnc3n2-c2cccnc2Nc2ccccc2-3)cc1", "melting point": "> 300"}
{"compound": "CC(=O)NC[C@@H]1C[C@H]1c1cccc2nn(C)cc12", "note": "(relative stereo)", "melting point": "145 to 147"}
{"compound": "CCCOC(=O)c1c(-c2ccncc2)[nH]c(-c2ccncc2)c1C", "melting point": "215 to 218"}
{"compound": "CC(C)c1nc(C(C)(C)C)cc(-c2ccc(F)cc2)c1C=CI", "melting point": "78 to 80"}
{"compound": "O=C1Nc2cc3c(cc2SC1CCCN1CCN(c2ccc(F)cc2)CC1)OCO3", "note": "(centres undefined)", "melting point": "175 to 177"}
{"compound": "CCCCCCCCNc1nc(Cl)nc(NCCCCCCCC)n1", "melting point": "171 to 172"}
{"compound": "Cn1ncnc1COc1nc2c(nnn2-c2ccccc2)c2ccccc12", "melting point": "188 to 190"}
{"compound": "Cc1nnc2cc(-c3ccncc3)ccn12", "melting point": "223 to 226"}
{"compound": "Nc1cc(CNc2ccccc2C(=O)Nc2cccc(C(F)(F)F)c2)ccn1", "melting point": 64}
{"compound": "Cn1c(-c2ccccn2)cc(O)c(C(=N)c2ccccc2)c1=O", "melting point": "242 to 245"}
{"compound": "COCCOc1cc(Oc2ccc(C(F)(F)F)cn2)ccc1CCCOc1cc(CCC(=O)O)n(-c2ccccc2)n1", "melting point": "83 to 85"}
{"compound": "CC1=NN(c2ccccc2)C(=O)C1C=O", "note": "(centres undefined)", "melting point": "178 to 180"}
{"compound": "Cc1cccc(-c2nc3ccc(OCCCCl)cc3n2Cc2ccccc2)c1", "melting point": 97}
